Data taken from patent US9957282B2, “Crystalline forms of quinolone analogs and their salts” (Senhwa Biosciences, Inc., priority 2015, dated 2018).

Experiments:
[1] = Aqueous solubility of acid salts of Compound I; format: physicochemical; settings: water, 42 °C, thermodynamic from solid, approximately 50 mg salt in 0.25 mL water (x2, added portion wise), read-out: Aqueous Solubility (Calculated)
[2] = Solubility of polymorph forms in organic solvents; format: physicochemical
Method: Solubility of polymorphs A, C, E, and G of Compound I (free base) were determined by suspending approximately 25 mg of each polymorph in organic solvents and the resulting mixtures were stirred at room temperature or elevated temperatures for 1 h. A sample was filtered and the concentration was determined by HPLC. The remaining suspension was evaporated and the solid was analyzed by XRPD to confirm that the polymorph form in the suspension was still the same polymorph form used for the experiment.

Row | solubility at 3 days [1] [mg/mL] | Relative stability of polymorph, inferred from solubility ([2]; compared with polymorphs C, E, G) | Solubility of polymorph relative to polymorphs A, C, E, G ([2]; methanol and THF (FIG. 20), room temperature or elevated temperatures, stirred 1 h) | SMILES
1 | > 200 | – | – | Cc1cnc(CNC(=O)c2c(=O)c3ccc(N4CCCN(C)CC4)nc3n3c2sc2ccccc23)cn1
2 | – | most stable | lowest solubility | Cc1cnc(CNC(=O)c2c(=O)c3ccc(N4CCCN(C)CC4)nc3n3c2sc2ccccc23)cn1 [Polymorph A]
